Assay [1] has as its system dogs anesthetized with Surital. Kind of assay: analeptic effect of intra-carotid administration on Surital (thiamylal) anesthesia in dogs. The settings on record: systemic administration. It counts as in vivo, dog.
The next assay relates to dog WBC. The assay can be described thus: carbohydrate metabolism of dog white blood cells in vitro. The assay is classed as cell-based. How it is done:
The tests were also conducted to investigate the effect of FDP on white blood cells (WBC) on metabolism in vitro. […] It was experimentally assessed whether FDP can stimulate the carbohydrate metabolism of these cells at rest. A similar phenomenon observed for normal human erythrocytes, sickle cells and dog erythrocytes. From healthy humans and dogs, the white blood cells were separated and incubated at 37° Celsius for various periods of time with FDP, glucose and normal saline. At the end of incubation, ATP and intermediates of the glycolytic pathway were assessed. […] The pyruvic acid concentration in dog WBC incubated with FDP was 10 times greater than those incubated in glucose while those for the human WBC, this difference was of much lesser degree (X2). The dihydroxyacetone (DHA) in the human and canine WBC was 5 to 10 times greater in the FDP incubated than in the glucose ones.

Turning to `O=C(COP(=O)(O)O)[C@@H](O)[C@H](O)[C@H](O)COP(=O)(O)O` [FDP, fructose-1,6-diphosphate], the analeptic effect result in assay [1] is recorded as “The same analeptic effect, but to a much lesser degree”. Further, the “effect on carbohydrate metabolism” value in the assay on dog WBC was “profound stimulating effect on the carbohydrate metabolism”. In the assay on dog WBC (5 to 50 mg/ml FDP, no AMP or ADP), the “concentration dependence of ATP production” value is “independent of the concentration (from 5 to 50 mg/ml), but rather a function of the incubation time”. Besides, the “concentration dependence of ATP increase” value with dog WBC (AMP or ADP added) was “the increase of ATP becomes a function of the FDP concentration”. Further, the “pyruvic acid concentration, FDP versus glucose” value with dog WBC (dog WBC) turned out to be 10 times.

The values above are taken from patent publication US5039665A, “Use of fructose-1,6-diphosphate for treating myocardial infarction” (priority 1990, dated 1991).
